Columns and labels:
[1] = tested on: IL-6; assay: Mouse IL6 Quantification Assay (LPS-stimulated RAW 264.7); type: cell-based; set-up: dose or concentration left out as unconfirmed; conditions: RAW264.7, ELISA, read-out: IL-6: % inh.
[2] = tested on: KRas G12D mutant; assay: Ras GTP Binding Domain Inhibition Assay, KRas G12D mutant; conditions: at 20 μM; for KRas G12D mutant + SOS: % inh.: with SOS; for KRas G12D mutant: % inh.: without SOS
Procedure: (§1) A Ras Superfamily Activity Assay (as disclosed in International Application No. PCT/US2018/038613, filed Jun. 20, 2018, which is incorporated by reference in its entirety) was used as a specific assay to evaluate compounds against the following for the following Ras Superfamily proteins: KRas wild type, KRas Q61H mutant, KRas G12C mutant, KRas G12D mutant, Rac-1, and Rho-A.
(§2) Buffer-I: • 25 mM Tris-HCl, pH 7.4 • 27 mM KCl • 137 mM NaCl • 1 mM MgCl2 • 1 mM DTT
(§3) Buffer-IL: • 50 mM Tris-HCl, pH 7.0 • 1 mM MgCl2 • 1 mM DTT
(§4) The small GTPases proteins: KRas wild type. KRas Q61H mutant, KRas G12C mutant, KRas G12D mutants, Rac-1, and Rho-A were expressed as His-tagged proteins. In addition, the Guanosine nucleotide Exchange Factor (GEF) Sos protein (residues 556-1049) was expressed as a His-tagged protein. In cells, the guanine nucleotide exchange factor Sos protein promotes activation of Ras proteins by stimulating an exchange of GDP for GTP. The inclusion of Sos to the Ras GTP binding domain inhibition assay may be considered as an alternative representation of physiological cellular conditions for evaluating the inhibitory activity of some of the tested small molecules.
(§5) For the assay, all purified small GTPases proteins were diluted in Buffer-I or Buffer-II to a final concentration of 10-30 μg/mL. 200 μL of each diluted protein was added to a nickel-coated 96-well plate and incubated overnight at 4° C. Then the protein solution was discarded and 200 μL of Buffer-I or Buffer-II was added to each well in the presence of 1% DMSO. Compounds to be tested were added to the protein-coated wells at final concentration of 20 μM, and incubated for 3 hours at room temperature with and without 10-30 μg/mL of Sos added to the final hour of the incubation. When performing IC50 measurements a serial dilution of all tested concentrations was added. Then Cy3-GTP or Cy5-GTP was added to each well to a final concentration of 100 nM. The labeled GTP was incubated for 45 minutes at room temperature. Following GTP incubation, wells were washed 3× in Buffer-I or Buffer-II and 200 μL of Buffer-I or Buffer-II was added to each well. Following washes, the amount of bound labeled-GTP was measured using a SpectraMax M3 (Molecular Devices).

[3] = tested on: TNFα; assay: Mouse TNF Alpha Quantification Assay (LPS-stimulated RAW 264.7); type: cell-based; set-up: dose or concentration left out as unconfirmed; conditions: RAW264.7, ELISA, read-out: TNFα: % inh.
[4] = tested on: KRas G12C mutant; assay: Ras GTP Binding Domain Inhibition Assay, KRas G12C mutant; conditions: at 20 μM; for KRas G12C mutant + SOS: % inh.: with SOS; for KRas G12C mutant: % inh.: without SOS
Procedure: as §1, §2, §3, §4, §5

[5] = tested on: Rho-A; assay: Ras GTP Binding Domain Inhibition Assay, Rho-A; conditions: at 20 μM; without SOS
Procedure: as §1, §2, §3, §4, §5

[6] = tested on: KRas wild type; assay: Ras GTP Binding Domain Inhibition Assay, KRas wild type; conditions: at 20 μM; for KRas wild type + SOS: % inh.: with SOS; for KRas wild type: % inh.: without SOS
Procedure: as §1, §2, §3, §4, §5

Row | SMILES | inhibition [1] [%] | KRas G12D mutant + SOS: % inh. ([2]; Table 7) | KRas G12D mutant + SOS: % inh. ([2]; Table 8) | KRas G12D mutant: % inh. ([2]; Table 7) | KRas G12D mutant: % inh. ([2]; Table 8) | inhibition [3] [%] | KRas G12C mutant + SOS: % inh. [4] | KRas G12C mutant: % inh. [4] | Rho-A: % inh. [5] | KRas wild type + SOS: % inh. [6] | KRas wild type: % inh. [6]
1 | COCCO[C@H]1CC[C@@H](Nc2nc(-c3nccn3C)nc3sc(-c4ccn(C(C)C)n4)c(C)c23)C1 (racemic) [Compound 20, rac-6-(1-Isopropyl-1H-pyrazol-3-yl)-N-((1R,3S)-3-(2-methoxyethoxy)cyclopentyl)-5-methyl-2-(1-methyl-1H-imidazol-2-yl)thieno[2,3-d]pyrimidin-4-amine] | 76 to 100 | D (D = 76-100% inhibition) | D (D = 76-100% inhibition) | D (D = 76-100% inhibition) | D (D = 76-100% inhibition) | 46 to 75 | D (D = 76-100% inhibition) | D (D = 76-100% inhibition) | C (C = 46-75% inhibition) | D (D = 76-100% inhibition) | D (D = 76-100% inhibition)
2 | COCCOCCNc1nc(-c2nccn2C)nc2sc(-c3ccn(C(C)C)n3)c(C)c12 [Compound 21, 6-(1-Isopropyl-1H-pyrazol-3-yl)-N-(2-(2-methoxyethoxy)ethyl)-5-methyl-2-(1-methyl-1H-imidazol-2-yl)thieno[2,3-d]pyrimidin-4-amine] | 46 to 75 | D (D = 76-100% inhibition) | D (D = 76-100% inhibition) | D (D = 76-100% inhibition) | D (D = 76-100% inhibition) | 1 to 25 | D (D = 76-100% inhibition) | C (C = 46-75% inhibition) | D (D = 76-100% inhibition) | D (D = 76-100% inhibition) | D (D = 76-100% inhibition)
3 | COc1cccc(-c2sc3nc(-c4nccn4C)nc(N[C@H]4C[C@H](OC)C4)c3c2C)c1F [Compound 42, 6-(2-Fluoro-3-methoxyphenyl)-N-((1r,3r)-3-methoxycyclobutyl)-5-methyl-2-(1-methyl-1H-imidazol-2-yl)thieno[2,3-d]pyrimidin-4-amine] | 46 to 75 | D (D = 76-100% inhibition) | D (D = 76-100% inhibition) | B (B = 26-45% inhibition) | B (B = 26-45% inhibition) | 0 | D (D = 76-100% inhibition) | C (C = 46-75% inhibition) | C (C = 46-75% inhibition) | D (D = 76-100% inhibition) | D (D = 76-100% inhibition)
4 | CO[C@H]1CNC[C@@H](Nc2nc(-c3nccn3C)nc3sc(-c4ccn(C(C)C)n4)cc23)C1 [Compound 28, 6-(1-Isopropyl-1H-pyrazol-3-yl)-N-((3S,5R)-5-methoxypiperidin-3-yl)-2-(1-methyl-1H-imidazol-2-yl)thieno[2,3-d]pyrimidin-4-amine] | 76 to 100 |  |  |  |  | 46 to 75 |  |  |  |  | 
5 | COCC1(OC)CCN(c2nc(-c3nccn3C)nc3sc(-c4ccn(C(C)C)n4)c(C)c23)C1 (racemic) [Compound 27, rac-6-(1-Isopropyl-1H-pyrazol-3-yl)-4-(3-methoxy-3-(methoxymethyl)pyrrolidin-1-yl)-5-methyl-2-(1-methyl-1H-imidazol-2-yl)thieno[2,3-d]pyrimidine] | 76 to 100 | D (D = 76-100% inhibition) | D (D = 76-100% inhibition) | C (C = 46-75% inhibition) | C (C = 46-75% inhibition) | 76 to 100 | D (D = 76-100% inhibition) | D (D = 76-100% inhibition) | C (C = 46-75% inhibition) | D (D = 76-100% inhibition) | D (D = 76-100% inhibition)
6 | COc1cccc(Nc2nc(-c3nccn3C)nc3sc(-c4ccn(C(C)C)n4)c(C)c23)n1 [Compound 18, 6-(1-Isopropyl-1H-pyrazol-3-yl)-N-(6-methoxypyridin-2-yl)-5-methyl-2-(1-methyl-1H-imidazol-2-yl)thieno[2,3-d]pyrimidin-4-amine] | 26 to 45 | C (C = 46-75% inhibition) | C (C = 46-75% inhibition) | D (D = 76-100% inhibition) | D (D = 76-100% inhibition) | 0 | C (C = 46-75% inhibition) | C (C = 46-75% inhibition) | D (D = 76-100% inhibition) | C (C = 46-75% inhibition) | C (C = 46-75% inhibition)
7 | COCC1CN(c2nc(-c3nccn3C)nc3sc(-c4ccn(C(C)C)n4)c(C)c23)CCO1 (racemic) [Compound 15, rac-4-(6-(1-Isopropyl-1H-pyrazol-3-yl)-5-methyl-2-(1-methyl-1H-imidazol-2-yl)thieno[2,3-d]pyrimidin-4-yl)-2-(methoxymethyl)morpholine] | 46 to 75 | D (D = 76-100% inhibition) | D (D = 76-100% inhibition) | D (D = 76-100% inhibition) | D (D = 76-100% inhibition) | 76 to 100 | D (D = 76-100% inhibition) | C (C = 46-75% inhibition) | D (D = 76-100% inhibition) | D (D = 76-100% inhibition) | D (D = 76-100% inhibition)
8 | CO[C@H]1C[C@H](CNc2nc(-c3nccn3C)nc3sc(-c4ccn(C(C)C)n4)c(C)c23)C1 [Compound 16, 6-(1-Isopropyl-1H-pyrazol-3-yl)-N-(((1r,3r)-3-methoxycyclobutyl)methyl)-5-methyl-2-(1-methyl-1H-imidazol-2-yl)thieno[2,3-d]pyrimidin-4-amine] | 46 to 75 | C (C = 46-75% inhibition) | C (C = 46-75% inhibition) | B (B = 26-45% inhibition) | B (B = 26-45% inhibition) | 1 to 25 | C (C = 46-75% inhibition) | C (C = 46-75% inhibition) | C (C = 46-75% inhibition) | C (C = 46-75% inhibition) | D (D = 76-100% inhibition)
9 | COc1cccc(-c2sc3nc(-c4nccn4C)nc(N[C@@H]4CC[C@@H](OC)C4)c3c2C)c1F (racemic) [Compound 43, rac-6-(2-Fluoro-3-methoxyphenyl)-N-((1R,3R)-3-methoxycyclopentyl)-5-methyl-2-(1-methyl-1H-imidazol-2-yl)thieno[2,3-d]pyrimidin-4-amine] | 76 to 100 | D (D = 76-100% inhibition) | D (D = 76-100% inhibition) | A (A = 1-25% inhibition) | A (A = 1-25% inhibition) | 26 to 45 | D (D = 76-100% inhibition) | B (B = 26-45% inhibition) | B (B = 26-45% inhibition) | D (D = 76-100% inhibition) | B (B = 26-45% inhibition)
10 | COCCNc1nc(-c2nccn2C)nc2sc(-c3ccccc3)c(-c3ccccc3Cl)c12 [Compound 4, 5-(2-Chlorophenyl)-N-(2-methoxyethyl)-2-(1-methyl-1H-imidazol-2-yl)-6-phenylthieno[2,3-d]pyrimidin-4-amine] |  |  |  | B (B = 26-45% inhibition) | B (B = 26-45% inhibition) |  |  | B (B = 26-45% inhibition) | B (B = 26-45% inhibition) |  | A (A = 1-25% inhibition)

Source: US20240309015A1, “Methods for the Treatment of Fibrotic Disease” (SHY Therapeutics, LLC, priority 2021, published 2024)
